Measured values published in patent publication US20100331384A1, “GUANIDINE BASED COMPOUNDS” (UNIVERSIDAD DEL PAIS VASCO/EUSKAL HERRIKO UNIBERTSITATEA, priority 2007, published 2010).
“Also recorded” adds a separate entry of the source.

Target: T1, α2-ARs (Homo sapiens, UniProt P08913)
T1 construct: other: human brain tissue in vitro; other: stimulation of [35S]GTPγS b
Assay: [35S]GTPγS binding functional assay, compounds alone
Format: biochemical
Details: human brain PFC
Procedure: The [^35S]GTPγs binding assay constitutes a functional measure of the interaction of the receptor and the G-protein and is a useful tool to distinguish between agonists (increasing the nucleotide binding), inverse agonists (decreasing the nucleotide binding), and neutral antagonists (not affecting the nucleotide binding) of GPCRs.^20 Experiments were performed in low-affinity receptor conditions for agonists (presence of guanine nucleotides and sodium in the medium), and therefore, typical potency values are two-three logarithmic units lower than affinity values obtained in radioligand receptor binding experiments.^20
(§1) Preparation of membranes. Neural membranes (P2 fractions) were prepared from the PFC of human brains obtained at autopsy in the Instituto Vasco de Medicina Legal, Bilbao, Spain. Postmortem human brain samples of each subject (˜1 g) were homogenized using a Teflon-glass grinder (10 up-and-down strokes at 1500 rpm) in 30 volumes of homogenization buffer (1 mM MgCl2, and 5 mM Tris-HCl, pH 7.4) supplemented with 0.25 M sucrose. The crude homogenate was centrifuged for 5 min at 1000×g ([…]) and the supernatant was centrifuged again for 10 min at 40000×g (4° C.). The resultant pellet was washed twice in 20 volumes of homogenization buffer and recentrifuged in similar conditions. Aliquots of 1 mg protein were stored at −70° C. until assay.
[^35S]GTPγs binding assays. The incubation buffer for measuring [^35S]GTPγs binding to brain membranes contained, in a total volume of 500 μL, 1 mM EGTA, 3 mM MgCl2, 100 mM NaCl, […], 50 mM Tris-HCl at pH 7.4 and 0.5 nM [^35S]GTPγs. Proteins aliquots were thawed and re-suspended in the same buffer. The incubation was started by addition of the membrane suspension (40 μg of membrane proteins) to the previous mixture and was performed at 30° C. for 120 min with shaking. In order to evaluate the influence of the compounds on [^35S]GTPγs binding, 8 concentrations (10^−10 to 10^−3M) of the different compounds were added to the assay. Incubations were terminated by adding 3 mL of ice-cold re-suspension buffer followed by rapid filtration through Whatman GF/C filters pre-soaked in the same buffer. The filters were rinsed twice with 3 mL of ice-cold re-suspension buffer, transferred to vials containing 5 mL of OptiPhase HiSafe II cocktail (Wallac, UK) and the radioactivity trapped was determined by liquid scintillation spectrometry (Packard 2200CA). […] Non-specific binding of the radioligand was defined as the remaining [^35S]GTPγs binding in the presence of 10 μM unlabelled GTPγs.

T1 sequence (P08913 whole entry): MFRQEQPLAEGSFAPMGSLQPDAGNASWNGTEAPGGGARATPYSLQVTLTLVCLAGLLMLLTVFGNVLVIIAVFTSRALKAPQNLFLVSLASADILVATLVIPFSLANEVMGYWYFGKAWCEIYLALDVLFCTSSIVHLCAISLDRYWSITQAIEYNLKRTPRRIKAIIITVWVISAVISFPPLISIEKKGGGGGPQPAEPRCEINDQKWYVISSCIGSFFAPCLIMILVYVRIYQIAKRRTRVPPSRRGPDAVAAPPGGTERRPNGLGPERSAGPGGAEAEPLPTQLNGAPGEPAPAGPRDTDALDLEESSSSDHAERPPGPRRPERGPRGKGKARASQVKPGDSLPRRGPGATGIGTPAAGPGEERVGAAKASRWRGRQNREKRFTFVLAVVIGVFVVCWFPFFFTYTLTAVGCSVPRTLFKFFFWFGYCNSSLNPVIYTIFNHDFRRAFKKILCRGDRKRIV

Compound	agonistic or antagonistic properties in [35S]GTPγS experiments
Cc1ccc(NC2=NCCN2)cc1 [Compound 6b, 1-(2-imidazolidinylimino)-4-methylbenzene]	agonistic properties
Cc1ccc(NC2=NCCN2)cc1C [Compound 8b, 1-(2-imidazolidinylimino)-3,4-dimethylbenzene]	agonistic properties
c1cc2c(cc1NC1=NCCN1)CCCC2 [Compound 10b, imidazolidin-2-ylidene-(5,6,7,8-tetrahydro-naphthalen-2-yl)-amine]	agonistic properties
N=C(N)Nc1ccc2c(c1)CCCC2 [Compound 17b, N-(5,6,7,8-tetrahydro-naphthalen-2-yl)-guanidine]	antagonistic properties
c1cc2c(cc1NC1=NCCN1)Cc1ccc(NC3=NCCN3)cc1C2 [Compound 18b, 2,6-di(2-imidazolidinylimino)-9,10-dihydroanthracene]	agonistic properties
N=C(N)Nc1ccc2c(c1)Cc1ccc(NC(=N)N)cc1C2 [Compound 21b, 2,6-diguanidino-9,10-dihydroanthracene]	agonistic properties

Same assay, conditions: human brain PFC membranes

Compound	stimulation of [35S]GTPγS binding by the compound on its own
Cc1ccc(NC2=NCCN2)cc1 [Compound 6b, 1-(2-imidazolidinylimino)-4-methylbenzene]	stimulated binding
Cc1ccc(NC2=NCCN2)cc1C [Compound 8b, 1-(2-imidazolidinylimino)-3,4-dimethylbenzene]	stimulated binding
c1cc2c(cc1NC1=NCCN1)CCCC2 [Compound 10b, imidazolidin-2-ylidene-(5,6,7,8-tetrahydro-naphthalen-2-yl)-amine]	stimulated binding
N=C(N)Nc1ccc2c(c1)CCCC2 [Compound 17b, N-(5,6,7,8-tetrahydro-naphthalen-2-yl)-guanidine]	did not stimulate binding
c1cc2c(cc1NC1=NCCN1)Cc1ccc(NC3=NCCN3)cc1C2 [Compound 18b, 2,6-di(2-imidazolidinylimino)-9,10-dihydroanthracene]	did not stimulate binding
N=C(N)Nc1ccc2c(c1)Cc1ccc(NC(=N)N)cc1C2 [Compound 21b, 2,6-diguanidino-9,10-dihydroanthracene]	did not stimulate binding

Same assay, conditions: read-out: Emax (%), percentage efficacy relative to UK14304

Compound	Emax
c1ccc(Cc2ccc(NC3=NCCN3)cc2)cc1 [Compound 4b, 1-(2-imidazolidinyliminio)-4-benzylbenzene]	111%
Cc1ccc(NC2=NCCN2)cc1 [Compound 6b, 1-(2-imidazolidinylimino)-4-methylbenzene]	97%
Cc1ccc(NC2=NCCN2)cc1C [Compound 8b, 1-(2-imidazolidinylimino)-3,4-dimethylbenzene]	89%
c1cc2c(cc1NC1=NCCN1)CCCC2 [Compound 10b, imidazolidin-2-ylidene-(5,6,7,8-tetrahydro-naphthalen-2-yl)-amine]	100%

Tested on: mice
Assay: Tail suspension test
Format: in vivo
Details: compared with saline control, FIG. 4
Excerpt: The tail suspension test as illustrated in FIG. 4 has become one of the most widely used models for assessing antidepressant-like activity in mice. The test is based on the fact that animals subjected to the short-term, inescapable stress of being suspended by their tail, will develop an immobile posture. Antidepressant medications encourage the animal to struggle and promote the occurrence of escape-related behaviour.

Compound	immobility period
N=C(N)Nc1ccc2c(c1)CCCC2 [Compound 17b, N-(5,6,7,8-tetrahydro-naphthalen-2-yl)-guanidine]	slightly shorter immobility period than the saline control

Target: α2-ARs
Assay: not given
Details: starred compounds, affinity reported in reference 9 by the same group; cited from earlier work

Compound	affinity values (pKi) for the α2-ARs
c1cc2c(cc1NC1=NCCN1)OCO2 [Compound 3]	7.33
N=C(N)Nc1ccc2c(c1)OCO2 [Compound 3b]	6.40
c1ccc(Nc2ccc(NC3=NCCN3)cc2)cc1 [Compound 25a]	6.56
N=C(N)Nc1ccc(Nc2ccccc2)cc1 [Compound 25b]	6.83
c1ccc(Oc2ccc(NC3=NCCN3)cc2)cc1 [Compound 26a]	6.58
N=C(N)Nc1ccc(Oc2ccccc2)cc1 [Compound 26b]	6.05
c1ccc(Sc2ccc(NC3=NCCN3)cc2)cc1 [Compound 27a]	6.62
N=C(N)Nc1ccc(Sc2ccccc2)cc1 [Compound 27b]	6.30
COc1ccc(NC2=NCCN2)cc1 [Compound 28a]	7.77
COc1ccc(NC(=N)N)cc1 [Compound 28b]	6.39
CSc1ccc(NC2=NCCN2)cc1 [Compound 29a]	7.07
CSc1ccc(NC(=N)N)cc1 [Compound 29b]	6.40
Nc1ccc(NC2=NCCN2)cc1 [Compound 30a]	6.92
N=C(N)Nc1ccc(N)cc1 [Compound 30b]	5.58
c1cc2c(cc1NC1=NCCN1)OCCO2 [Compound 31a]	7.85
N=C(N)Nc1ccc2c(c1)OCCO2 [Compound 31b]	8.21

Tested on: α2-ARs
Assay: not given
Details: previously described, reference 9; cited from earlier work

Compound	agonist or antagonist nature at α2-ARs, previously reported
c1cc2c(cc1NC1=NCCN1)OCO2 [Compound 3]	α2-AR antagonists; also recorded: antagonist
N=C(N)Nc1ccc2c(c1)OCCO2 [Compound 31b]	agonist

Target: α2-ARs
Assay: [3H]RX821002 competition binding assay in human brain PFC membranes
Details: 31a vs 10b, 31b vs 17b
Procedure: as §1
[^3H]RX821002 binding assays. […] Incubations were terminated by diluting the samples with 5 ml of ice-cold Tris incubation buffer (4° C.). Membrane bound [^3H]RX821002 was separated by vacuum filtration through Whatman GF/C glass fibre filters. Then, the filters were rinsed twice with 5 ml of incubation buffer and transferred to minivials containing 3 ml of OptiPhase “HiSafe” II cocktail and counted for radioactivity by liquid scintillation spectrometry. Specific binding was determined and plotted as a function of the compound concentration. Non-specific binding was determined in the presence of adrenaline (10^−5 M).
Analysis of binding data. Analysis of competition experiments to obtain the inhibition constant (Ki) were performed by nonlinear regression using the GraphPad Prism program. All experiments were analysed assuming a one-site model of radioligand binding. Ki values were normalized to pKi values.

Compound	pKi higher than methylene containing counterpart
c1cc2c(cc1NC1=NCCN1)OCCO2 [Compound 31a]	0.52 logarithmic units
N=C(N)Nc1ccc2c(c1)OCCO2 [Compound 31b]	1.10 logarithmic units

Target: T1, α2-ARs
Assay: as above
Details: human brain tissue in vitro

Compound	affinity towards the α2-ARs compared with references
Cc1ccc(NC2=NCCN2)cc1 [Compound 6b, 1-(2-imidazolidinylimino)-4-methylbenzene]	within the range of those of Idazoxan and/or Clonidine
Cc1ccc(NC2=NCCN2)cc1C [Compound 8b, 1-(2-imidazolidinylimino)-3,4-dimethylbenzene]	within the range of those of Idazoxan and/or Clonidine
c1cc2c(cc1NC1=NCCN1)CCCC2 [Compound 10b, imidazolidin-2-ylidene-(5,6,7,8-tetrahydro-naphthalen-2-yl)-amine]	within the range of those of Idazoxan and/or Clonidine
N=C(N)Nc1ccc2c(c1)CCCC2 [Compound 17b, N-(5,6,7,8-tetrahydro-naphthalen-2-yl)-guanidine]	within the range of those of Idazoxan and/or Clonidine
c1cc2c(cc1NC1=NCCN1)Cc1ccc(NC3=NCCN3)cc1C2 [Compound 18b, 2,6-di(2-imidazolidinylimino)-9,10-dihydroanthracene]	within the range of those of Idazoxan and/or Clonidine
N=C(N)Nc1ccc2c(c1)Cc1ccc(NC(=N)N)cc1C2 [Compound 21b, 2,6-diguanidino-9,10-dihydroanthracene]	within the range of those of Idazoxan and/or Clonidine

Tested on: extracellular NA levels in the PFC
Assay: In vivo microdialysis in the PFC, extracellular NA
Set-up: species or system male Sprague Dawley rats
Details: deduced from NA increase after systemic administration
Excerpt: Intracerebral microdialysis is a neurochemical technique that has been applied extensively in pharmacological studies aimed at investigating the effect of different drugs on brain neurotransmission. This technique allows one to collect a representative concentration of different neurotransmitters of the area where the probe is implanted while the animals are awake and freely moving.^21
Most antidepressant drugs are able to increase NA extracellular concentrations in different brain areas as the PFC, an area implicated in depression disease. Considering that α2-ARs exert a tonic inhibitory action on NA release from the noradrenergic terminals we assessed the ability of these two new compounds to increase NA extracellular concentration in this area. First, we tested the drugs when administered locally in order to confirm their antagonistic activity over α2-ARs in vivo.
A second step was to study the effect of these compounds increasing NA extracellular concentrations when administered systemically.
In Vivo Microdialysis assays. The experiments were carried out in male Sprague Dawley rats weighing between 250 g and 300 g. At the beginning of the experiments, animals were anaesthetized with chloral hydrate (400 mg/kg i.p.) and a microdialysis probe was implanted by stereotaxic surgery into prefrontal cortex (PFC) brain area. The coordinates selected for the PFC were as follows: AP (anterior to bregma) +2.8 mm, L (lateral from the mid-sagittal suture) +1 mm, DV (ventral from the dura surface) −5 mm.^22 After 24 hours for animal recovery, perfusion fluid (artificial cerebrospinal fluid) is pumped through the probe at a flow rate of 1 μl/min. In the semipermeable membrane, that is the critical side of the probe and is placed on the selected area, molecules flow into and out the cannulae by diffusion. Therefore, microdialysis technique allows local administration of substrates dissolved in the perfusion fluids.
When drugs were locally administered, they were dissolved in a CSF and applied during 70 min via dialysis probe implanted in the PFC in increasing concentrations of 1, 10 and 100 μM. The compounds systemically administered were dissolved in saline and injected intraperitoneally.
Samples, collected with the microdialysis procedure (every 35 min), were analyzed by HPLC with electrochemical detection. NA concentrations were monitorizated by an amperometric detector (Hewlett-Packard model 1049A) at an oxidizing potential of +650 mV. The movil phase (12 mM citric acid, 1 mM EDTA, 0.7 mM octylsodio sulfate, pH 5 and 10% methanol) was filtered, degassed (Hewlett-Packard model 1100 degasser) and delivered at a flow rate of 0.2 ml/min by a Hewlett-Packard model 1100 pump. Stationary phase was a column of 150×2.1 mm (Thermo Electron Corporation, U.S.A.). Samples (injection volume 37 μl) were injected and NA analized in a run time of 10 min. Solution of standard noradrenaline was injected every working day to create a new calibration table.
The mean values of the first three samples before substrate administration were considered as 100% basal value. All measures of extracellular NA concentrations are expressed as percentage of the baseline value±s.e.mean. One way analysis of variance (ANOVA) for control group or two way ANOVA between control and each treated group was assessed for statistical analysis. After the experiments, rats were sacrificed with an overdose of chloral hydrate and the brains were dissected to check the correct implantation of the probe.

Compound	ability to cross the blood brain barrier (BBB)
N=C(N)Nc1ccc2c(c1)CCCC2 [Compound 17b, N-(5,6,7,8-tetrahydro-naphthalen-2-yl)-guanidine]	able to cross the blood brain barrier

Same assay, conditions: local administration by reverse dialysis 1-100 μM in PFC, percentage of basal values

Compound	Emax of increase in extracellular NA levels
N=C(N)Nc1ccc2c(c1)CCCC2 [Compound 17b, N-(5,6,7,8-tetrahydro-naphthalen-2-yl)-guanidine]	326±113%
c1ccc2c(c1)OCC(C1=NCCN1)O2 (stereo not drawn) [Idazoxan, reference compound]	235±42%

Same assay, conditions: local and systemic administration, rats

Compound	α2-AR antagonist properties in vivo
N=C(N)Nc1ccc2c(c1)CCCC2 [Compound 17b, N-(5,6,7,8-tetrahydro-naphthalen-2-yl)-guanidine]	α2-AR antagonist properties in vivo

Same assay, conditions: systemic (intraperitoneal) administration, evaluated in PFC

Compound	increase of NA extracellular concentration, maximal effect
N=C(N)Nc1ccc2c(c1)CCCC2 [Compound 17b, N-(5,6,7,8-tetrahydro-naphthalen-2-yl)-guanidine]	373±73%
